According to the supplement of paper PMC10307832:

Legend:
Test in all cases: relative viability (nuclei count vs DMSO), 5 days (fraction); higher = more cells survive
Sorafenib = compound: CNC(=O)c1cc(Oc2ccc(NC(=O)Nc3ccc(Cl)c(C(F)(F)F)c3)cc2)ccn1 [Sorafenib]
Procedure, shortened: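 Hoechst staining, done together with fixation and permeabilisation, marked nuclei for 4× imaging and MetaXpress counting. This followed 5 days without medium change after lung cancer cell lines, kept overnight at 37 °C in 1536-well plates, were pinned with five library-drug doses (not always all listed) spaced by √10 on vehicle-anchored plates. Viability is the ratio of treated-well to vehicle-well nuclei, expressed as a median across plates. Plates passed only at control CV below 25% with at least one doubling.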

Sorafenib + Bortezomib = compound: CNC(=O)c1cc(Oc2ccc(NC(=O)Nc3ccc(Cl)c(C(F)(F)F)c3)cc2)ccn1 [Sorafenib] + CC(C)C[C@H](NC(=O)[C@H](Cc1ccccc1)NC(=O)c1cnccn1)B(O)O [Bortezomib] (partner 0.002 µM)
Procedure, shortened: (§1)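 Five library-drug doses in √10 steps were combined with a fixed anchor-drug dose, or a single drug was given alone, by pin tool to lung cancer cell lines in 1536-well plates the day after seeding. Nuclei were stained and counted after 5 days. Relative viability is the nuclei count in treated wells over that in vehicle wells, taken as the median of duplicate plates.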

Sorafenib + Luminespib = compound: CNC(=O)c1cc(Oc2ccc(NC(=O)Nc3ccc(Cl)c(C(F)(F)F)c3)cc2)ccn1 [Sorafenib] + CCNC(=O)c1noc(-c2cc(C(C)C)c(O)cc2O)c1-c1ccc(CN2CCOCC2)cc1 [Luminespib] (partner 0.01 µM)
Procedure, shortened: as §1

Sorafenib + Foretinib = compound: CNC(=O)c1cc(Oc2ccc(NC(=O)Nc3ccc(Cl)c(C(F)(F)F)c3)cc2)ccn1 [Sorafenib] + COc1cc2c(Oc3ccc(NC(=O)C4(C(=O)Nc5ccc(F)cc5)CC4)cc3F)ccnc2cc1OCCCN1CCOCC1 [Foretinib] (partner 0.25 µM)
Procedure, shortened: as §1

Sorafenib + OSI-027 = compound: CNC(=O)c1cc(Oc2ccc(NC(=O)Nc3ccc(Cl)c(C(F)(F)F)c3)cc2)ccn1 [Sorafenib] + COc1cccc2cc(-c3nc([C@H]4CC[C@H](C(=O)O)CC4)n4ncnc(N)c34)[nH]c12 [OSI-027] (partner 0.5 µM)
Procedure, shortened: as §1

Sorafenib + Lapatinib = compound: CNC(=O)c1cc(Oc2ccc(NC(=O)Nc3ccc(Cl)c(C(F)(F)F)c3)cc2)ccn1 [Sorafenib] + CS(=O)(=O)CCNCc1ccc(-c2ccc3ncnc(Nc4ccc(OCc5cccc(F)c5)c(Cl)c4)c3c2)o1 [Lapatinib] (partner 2 µM)
Procedure, shortened: as §1

Sorafenib + Pictilisib = compound: CNC(=O)c1cc(Oc2ccc(NC(=O)Nc3ccc(Cl)c(C(F)(F)F)c3)cc2)ccn1 [Sorafenib] + CS(=O)(=O)N1CCN(Cc2cc3nc(-c4cccc5[nH]ncc45)nc(N4CCOCC4)c3s2)CC1 [Pictilisib] (partner 1 µM)
Procedure, shortened: as §1

Sorafenib + Crizotinib = compound: CNC(=O)c1cc(Oc2ccc(NC(=O)Nc3ccc(Cl)c(C(F)(F)F)c3)cc2)ccn1 [Sorafenib] + C[C@@H](Oc1cc(-c2cnn(C3CCNCC3)c2)cnc1N)c1c(Cl)ccc(F)c1Cl [Crizotinib] (partner 1 µM)
Procedure, shortened: as §1

Sorafenib + Linsitinib = compound: CNC(=O)c1cc(Oc2ccc(NC(=O)Nc3ccc(Cl)c(C(F)(F)F)c3)cc2)ccn1 [Sorafenib] + C[C@]1(O)C[C@@H](c2nc(-c3ccc4ccc(-c5ccccc5)nc4c3)c3c(N)nccn32)C1 [Linsitinib] (partner 1 µM)
Procedure, shortened: as §1

Sorafenib + Alpelisib = compound: CNC(=O)c1cc(Oc2ccc(NC(=O)Nc3ccc(Cl)c(C(F)(F)F)c3)cc2)ccn1 [Sorafenib] + Cc1nc(NC(=O)N2CCC[C@H]2C(N)=O)sc1-c1ccnc(C(C)(C)C(F)(F)F)c1 [Alpelisib] (partner 2 µM)
Procedure, shortened: as §1

Sorafenib + Dasatinib = compound: CNC(=O)c1cc(Oc2ccc(NC(=O)Nc3ccc(Cl)c(C(F)(F)F)c3)cc2)ccn1 [Sorafenib] + Cc1nc(Nc2ncc(C(=O)Nc3c(C)cccc3Cl)s2)cc(N2CCN(CCO)CC2)n1 [Dasatinib] (partner 0.075 µM)
Procedure, shortened: as §1

Sorafenib + Phenformin = compound: CNC(=O)c1cc(Oc2ccc(NC(=O)Nc3ccc(Cl)c(C(F)(F)F)c3)cc2)ccn1 [Sorafenib] + N=C(N)NC(=N)NCCc1ccccc1 [Phenformin] (partner 250 µM)
Procedure, shortened: as §1

Sorafenib + Pemetrexed = compound: CNC(=O)c1cc(Oc2ccc(NC(=O)Nc3ccc(Cl)c(C(F)(F)F)c3)cc2)ccn1 [Sorafenib] + Nc1nc2[nH]cc(CCc3ccc(C(=O)N[C@@H](CCC(=O)O)C(=O)O)cc3)c2c(=O)[nH]1 [Pemetrexed] (partner 0.2 µM)
Procedure, shortened: as §1

Work on NCI-H1563 yielded a relative viability (Sorafenib; 0.08 µM) of 1.07, a relative viability (Sorafenib; 0.253 µM) of 0.958 and a relative viability (Sorafenib; 2.53 µM) of 1.02. The relative viability (Sorafenib; 8 µM) was 0.779, the relative viability (Sorafenib + Bortezomib; first compound 0.253 µM) was 0.905 and the relative viability (Sorafenib + Bortezomib; first compound 2.53 µM) was 0.976. The relative viability (Sorafenib + Bortezomib; first compound 8 µM) was 0.508, the relative viability (Sorafenib + Luminespib; first compound 0.08 µM) was 0.533 and the relative viability (Sorafenib + Luminespib; first compound 0.253 µM) was 0.471. The relative viability (Sorafenib + Luminespib; first compound 2.53 µM) was 0.527, the relative viability (Sorafenib + Luminespib; first compound 8 µM) was 0.529 and the relative viability (Sorafenib + Foretinib; first compound 0.08 µM) was 0.992. It also gave a relative viability (Sorafenib + Foretinib; first compound 0.253 µM) of 0.929, a relative viability (Sorafenib + Foretinib; first compound 2.53 µM) of 0.943 and a relative viability (Sorafenib + Foretinib; first compound 8 µM) of 0.577. The relative viability (Sorafenib + OSI-027; first compound 0.08 µM) was 0.792, the relative viability (Sorafenib + OSI-027; first compound 0.253 µM) was 0.766 and the relative viability (Sorafenib + OSI-027; first compound 2.53 µM) was 0.687. For the same cell line, the relative viability (Sorafenib + OSI-027; first compound 8 µM) was 0.7, the relative viability (Sorafenib + Lapatinib; first compound 0.08 µM) was 1.01 and the relative viability (Sorafenib + Lapatinib; first compound 0.253 µM) was 0.92. For the same cell line, the relative viability (Sorafenib + Lapatinib; first compound 2.53 µM) was 0.884, the relative viability (Sorafenib + Lapatinib; first compound 8 µM) was 0.671 and the relative viability (Sorafenib + Pictilisib; first compound 0.08 µM) was 0.653. It also gave a relative viability (Sorafenib + Pictilisib; first compound 0.253 µM) of 0.523, a relative viability (Sorafenib + Pictilisib; first compound 2.53 µM) of 0.614 and a relative viability (Sorafenib + Pictilisib; first compound 8 µM) of 0.665. It also gave a relative viability (Sorafenib + Crizotinib; first compound 0.08 µM) of 0.893, a relative viability (Sorafenib + Crizotinib; first compound 0.253 µM) of 0.993 and a relative viability (Sorafenib + Crizotinib; first compound 2.53 µM) of 0.889. It also gave a relative viability (Sorafenib + Crizotinib; first compound 8 µM) of 0.674, a relative viability (Sorafenib + Linsitinib; first compound 0.08 µM) of 1.08 and a relative viability (Sorafenib + Linsitinib; first compound 0.253 µM) of 1.41. For the same cell line, the relative viability (Sorafenib + Linsitinib; first compound 2.53 µM) was 1.21, the relative viability (Sorafenib + Linsitinib; first compound 8 µM) was 1.16 and the relative viability (Sorafenib + Alpelisib; first compound 0.08 µM) was 0.903. It also gave a relative viability (Sorafenib + Alpelisib; first compound 0.253 µM) of 1, a relative viability (Sorafenib + Alpelisib; first compound 2.53 µM) of 0.894 and a relative viability (Sorafenib + Alpelisib; first compound 8 µM) of 0.728. It also gave a relative viability (Sorafenib + Dasatinib; first compound 0.08 µM) of 0.496, a relative viability (Sorafenib + Dasatinib; first compound 0.253 µM) of 0.469 and a relative viability (Sorafenib + Dasatinib; first compound 2.53 µM) of 0.478. It also gave a relative viability (Sorafenib + Dasatinib; first compound 8 µM) of 0.454, a relative viability (Sorafenib + Phenformin; first compound 0.08 µM) of 0.709 and a relative viability (Sorafenib + Phenformin; first compound 0.253 µM) of 0.643. For the same cell line, the relative viability (Sorafenib + Phenformin; first compound 2.53 µM) was 0.749, the relative viability (Sorafenib + Phenformin; first compound 8 µM) was 0.532 and the relative viability (Sorafenib + Pemetrexed; first compound 0.08 µM) was 0.969. The relative viability (Sorafenib + Pemetrexed; first compound 0.253 µM) was 0.654, the relative viability (Sorafenib + Pemetrexed; first compound 2.53 µM) was 0.775 and the relative viability (Sorafenib + Pemetrexed; first compound 8 µM) was 0.659.
